Reference: PubChem BioAssay AID2060912 (Molecular Pharmacology Branch, DTP, NCI, 2025)

System: HUVEC/MSC spheroids viability
Experiment: Human HUVEC/MSC cell line growth inhibition [KRAS2];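 as to viability, T/C: percent of DMSO vehicle control luminescence so 100% = untreated viability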
Settings: for IC50: curve of first compound; for viability, T/C: stronger effect = lower value
Outline: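 HUVEC + hMSC stromal spheroids only, no malignant cells; 37 °C, 5% CO2. Drugs singly and in pairs, half-log series down from clinical Cmax (max 10 microM if Cmax undetermined).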

## COc1cc(Nc2ncc3c(n2)-c2ccc(Cl)cc2C(c2c(F)cccc2OC)=NC3)ccc1C(=O)O + CNCc1ccccc1-c1csc(C(C)Nc2nc(C)nc3cc(OC)c(OC)cc23)c1
Second compound 0.0316 µM
  IC50: 9.93 µM
Second compound 0.1 µM
  IC50: > 10 µM
Second compound 0.316 µM
  IC50: 8.79 µM
Second compound 1 µM
  IC50: 9.31 µM
Second compound 3.16 µM
  IC50: > 10 µM
Second compound 10 µM
  IC50: < 0.0316 µM
Second compound 0.0316 µM, first compound 0.0316 µM
  viability, T/C: 92.9%
Second compound 0.0316 µM, first compound 0.1 µM
  viability, T/C: 104%
Second compound 0.0316 µM, first compound 0.316 µM
  viability, T/C: 101%
Second compound 0.0316 µM, first compound 1 µM
  viability, T/C: 87.3%
Second compound 0.0316 µM, first compound 3.16 µM
  viability, T/C: 84.6%
Second compound 0.0316 µM, first compound 10 µM
  viability, T/C: 49.2%
Second compound 0.1 µM, first compound 0.0316 µM
  viability, T/C: 93.2%
Second compound 0.1 µM, first compound 0.1 µM
  viability, T/C: 80.8%
Second compound 0.1 µM, first compound 0.316 µM
  viability, T/C: 98%
Second compound 0.1 µM, first compound 1 µM
  viability, T/C: 80.3%
Second compound 0.1 µM, first compound 3.16 µM
  viability, T/C: 84%
Second compound 0.1 µM, first compound 10 µM
  viability, T/C: 56.7%
Second compound 0.316 µM, first compound 0.0316 µM
  viability, T/C: 71.1%
Second compound 0.316 µM, first compound 0.1 µM
  viability, T/C: 90.8%
Second compound 0.316 µM, first compound 0.316 µM
  viability, T/C: 79.5%
Second compound 0.316 µM, first compound 1 µM
  viability, T/C: 73.3%
Second compound 0.316 µM, first compound 3.16 µM
  viability, T/C: 83.7%
Second compound 0.316 µM, first compound 10 µM
  viability, T/C: 46.3%
Second compound 1 µM, first compound 0.0316 µM
  viability, T/C: 75.5%
Second compound 1 µM, first compound 0.1 µM
  viability, T/C: 76.6%
Second compound 1 µM, first compound 0.316 µM
  viability, T/C: 97.3%
Second compound 1 µM, first compound 1 µM
  viability, T/C: 74.5%
Second compound 1 µM, first compound 3.16 µM
  viability, T/C: 92.4%
Second compound 1 µM, first compound 10 µM
  viability, T/C: 47.8%
Second compound 3.16 µM, first compound 0.0316 µM
  viability, T/C: 101%
Second compound 3.16 µM, first compound 0.1 µM
  viability, T/C: 106%
Second compound 3.16 µM, first compound 0.316 µM
  viability, T/C: 97.8%
Second compound 3.16 µM, first compound 1 µM
  viability, T/C: 90.4%
Second compound 3.16 µM, first compound 3.16 µM
  viability, T/C: 100%
Second compound 3.16 µM, first compound 10 µM
  viability, T/C: 50.7%
Second compound 10 µM, first compound 0.0316 µM
  viability, T/C: 0.4%
Second compound 10 µM, first compound 0.1 µM
  viability, T/C: 0.4%
Second compound 10 µM, first compound 0.316 µM
  viability, T/C: 0.37%
Second compound 10 µM, first compound 1 µM
  viability, T/C: 0.36%
Second compound 10 µM, first compound 3.16 µM
  viability, T/C: 0.41%
Second compound 10 µM, first compound 10 µM
  viability, T/C: 0.32%

## CC(=O)OC12COC1CC(O)C1(C)C(=O)C(O)C3=C(C)C(OC(=O)C(O)C(NC(=O)OC(C)(C)C)c4ccccc4)CC(O)(C(OC(=O)c4ccccc4)C21)C3(C)C (centres undefined) + COc1cc2nc(C)nc(NC(C)c3cc(N)cc(C(F)(F)F)c3)c2cc1OC1CCOC1
Second compound 0.0316 µM
  IC50: < 0.00949 µM
Second compound 0.1 µM
  IC50: > 3 µM
Second compound 0.316 µM
  IC50: < 0.00949 µM
Second compound 1 µM
  IC50: < 0.00949 µM
Second compound 3.16 µM
  IC50: > 3 µM
Second compound 10 µM
  IC50: 2.77 µM
Second compound 0.0316 µM, first compound 0.00949 µM
  viability, T/C: 47.1%
Second compound 0.0316 µM, first compound 0.03 µM
  viability, T/C: 55.3%
Second compound 0.0316 µM, first compound 0.0949 µM
  viability, T/C: 53%
Second compound 0.0316 µM, first compound 0.3 µM
  viability, T/C: 36.7%
Second compound 0.0316 µM, first compound 0.949 µM
  viability, T/C: 51.9%
Second compound 0.0316 µM, first compound 3 µM
  viability, T/C: 60.4%
Second compound 0.1 µM, first compound 0.00949 µM
  viability, T/C: 50.7%
Second compound 0.1 µM, first compound 0.03 µM
  viability, T/C: 57%
Second compound 0.1 µM, first compound 0.0949 µM
  viability, T/C: 54%
Second compound 0.1 µM, first compound 0.3 µM
  viability, T/C: 44%
Second compound 0.1 µM, first compound 0.949 µM
  viability, T/C: 54.7%
Second compound 0.1 µM, first compound 3 µM
  viability, T/C: 61.5%
Second compound 0.316 µM, first compound 0.00949 µM
  viability, T/C: 45.5%
Second compound 0.316 µM, first compound 0.03 µM
  viability, T/C: 44.4%
Second compound 0.316 µM, first compound 0.0949 µM
  viability, T/C: 44.8%
Second compound 0.316 µM, first compound 0.3 µM
  viability, T/C: 49.3%
Second compound 0.316 µM, first compound 0.949 µM
  viability, T/C: 47.5%
Second compound 0.316 µM, first compound 3 µM
  viability, T/C: 57.1%
Second compound 1 µM, first compound 0.00949 µM
  viability, T/C: 45.5%
Second compound 1 µM, first compound 0.03 µM
  viability, T/C: 47.8%
Second compound 1 µM, first compound 0.0949 µM
  viability, T/C: 37.2%
Second compound 1 µM, first compound 0.3 µM
  viability, T/C: 57.1%
Second compound 1 µM, first compound 0.949 µM
  viability, T/C: 63.6%
Second compound 1 µM, first compound 3 µM
  viability, T/C: 47.9%
Second compound 3.16 µM, first compound 0.00949 µM
  viability, T/C: 51.5%
Second compound 3.16 µM, first compound 0.03 µM
  viability, T/C: 48.3%
Second compound 3.16 µM, first compound 0.0949 µM
  viability, T/C: 58.6%
Second compound 3.16 µM, first compound 0.3 µM
  viability, T/C: 48.1%
Second compound 3.16 µM, first compound 0.949 µM
  viability, T/C: 58.3%
Second compound 3.16 µM, first compound 3 µM
  viability, T/C: 50.6%
Second compound 10 µM, first compound 0.00949 µM
  viability, T/C: 52.4%
Second compound 10 µM, first compound 0.03 µM
  viability, T/C: 71.7%
Second compound 10 µM, first compound 0.0949 µM
  viability, T/C: 59.2%
Second compound 10 µM, first compound 0.3 µM
  viability, T/C: 58.1%
Second compound 10 µM, first compound 0.949 µM
  viability, T/C: 59.8%
Second compound 10 µM, first compound 3 µM
  viability, T/C: 49.3%
